Values joined by “and” are separate entries in the source; they are usually repeats but may differ in a detail not shown here. Equal values may be shown once. Read-outs that look alike come from different tables or passages of the source.
Experiments:
[1] = no reference given, cited from earlier work
[2] = Population pharmacokinetic (PopPK) model of SAF-189s plasma concentrations (NONMEM); assay type: in vivo, human
Protocol: The population PK analysis included data from one phase I study of SAF-189s conducted with healthy subjects (study STL31147; n = 24) and one phase I/II study conducted with Chinese patients having ALK+/ROS1+ advanced NSCLC (study SAF001; n = 299). STL31147 was a single-center, randomized, open-label, two-period (fed and fasting), and two-sequence crossover study on healthy Chinese adults. The volunteers received SAF-189s at a dose of 160 mg orally once in each period, with a washout period of 14 days. Blood samples (3 mL) were collected after each SAF-189s administration at 0 (predose), 1, 2, 3, 4, 6, 8, 10, 12, 24, 48, 72, 120, and 168 h post dosing. SAF001 was a multicenter, open-label, and single-arm phase I/II study to evaluate the safety, tolerability, pharmacokinetics, and antitumor activity of SAF-189s in patients with advanced ALK+ NSCLC (phase I) and ALK+/ROS1+ NSCLC (phase II). In the dose escalation portion, the study treatment included a single-agent 3-day PK run-in period and a continuous treatment period. The dosing regimens were 20, 40, 80, 120, 160, and 210 mg QD for 21 days in 21-day cycles during the continuous treatment period. In phase II, the patients received 80, 120, 160, and 210 mg of SAF-189s (phase IIa) or 160 mg (phase IIb) QD over 21-day cycles.
All studies were conducted in accordance with the Good Clinical Practice guidelines and Declaration of Helsinki. The protocols were approved by the independent ethics committee of each investigation site, and all subjects provided informed consent. The tumor responses were assessed by the IRC based on the Response Evaluation Criteria in Solid Tumors (RECIST) 1.1 conditions. The exposure–efficacy analyses of SAF-189s were conducted based on data from patients in the SAF001 study to explore the relationships between systemic exposure and efficacy endpoints, including the ORR, PFS, and duration of response (DOR). The exposure–safety analyses of SAF-189s were conducted based on data from patients in the SAF001 study to explore the relationships between the systemic exposure and safety endpoints, including the adverse events (AEs) of interest. In these studies, the SAF-189s plasma concentrations were analyzed using validated liquid chromatography tandem mass spectrometry within the assay range of 0.5–150 ng mL^–1.
Dataset preparation and exploratory graphical analyses were performed using R (version 4.2.0) and SAS® (version 9.4, Institute Inc., Cary, NC, United States). The PK data of SAF-189s were pooled and analyzed using a non-linear mixed-effects model. The PopPK analysis was conducted using NONMEM® software (version 7.3, ICON, Hanover, MD, United States) with first-order conditional estimations with interactions (FOCE-I). Following graphical exploratory analysis, one- and two-compartment models were evaluated; several absorption models were then tested, including first-order, zero-order, sequential zero- and first-order, and parallel first-order models with and without a lag absorption time; based on the characteristics of the elimination phase of the concentration–time profiles of SAF-189s, the linear, non-linear, and time-dependent elimination models ([Lau et al., 2019]; [Kratochwil et al., 2021]) were investigated. Interindividual variance (IIV) was then described as a log-normal distribution, and the covariance between the IIV parameters was assessed. Residual variability was assessed by comparing the proportional, additive, and combined error models. Owing to the low proportion (<1%) of post-administration samples with concentrations below the quantification limit (BQL) of the assay, the BQL data were excluded from the PopPK model development. Model selection was based on the objective function value (OFV), goodness-of-fit (GOF) plot, and robustness of parameter estimates. The ETA shrinkage was also taken into consideration when evaluating the models.
The covariates were prespecified based on their physiological and clinical relevance. […]

[3] = previous NCA results, no reference given, cited from earlier work
[4] = 5th percentile age (25 years) vs median age (53 years)
[5] = 95th percentile age (71 years) vs median age (53 years)
[6] = ALKPOT 2 or 3 or 4 vs reference 1
[7] = ALKPOT 6 (healthy) vs reference 1
[8] = age 25 year vs reference 53 year, Figure 4
[9] = age 71 year vs reference 53 year, Figure 4

Cc1cc(Nc2ncc(Cl)c(Nc3ccccc3S(=O)(=O)C(C)C)n2)c2c(c1C1CCN(C)CC1)C[C@@H](C)O2 [SAF-189s]
permeability ([1]; BCS classification): low permeability | solubility ([1]; BCS classification): low solubility | BCS class [1]: BCS IV | AUCss geometric mean ([2]; 160 mg QD dose): 2,374 ng∙h mL^–1 | AUC decrease [2, 4]: 21% | CL/F increase [2, 4]: 27% | AUC increase [2, 5]: 10% | CL/F decrease [2, 5]: 8.8% | AUCss(ug*h/L) Ratio [2, 6]: 1.18 | V/F(L) Ratio [2, 6]: 0.734 | AUCss(ug*h/L) Ratio ([2]; ALKPOT 5 (ROS1) vs reference 1): 1.06 | V/F(L) Ratio ([2]; ALKPOT 5 (ROS1) vs reference 1): 0.917 | AUCss(ug*h/L) Ratio [2, 7]: 0.979 | V/F(L) Ratio [2, 7]: 0.784 | AUCss higher ([2]; ALKPOT = 2, 3, 4 compared to ALKPOT = 1): 18% | V/F reduction ([2]; ALKPOT = 2, 3, 4 relative to ALKPOT = 1): 26.6% | AUCss higher ([2]; ALKPOT = 5 compared to ALKPOT = 1): 6% | V/F reduction ([2]; ALKPOT = 5 relative to ALKPOT = 1): 8.3% | V/F reduction ([2]; ALKPOT = 6 (healthy subjects) relative to ALKPOT = 1): 21.6% | AUCss lower ([2]; ALKPOT = 6 compared to ALKPOT = 1): 2.1% | effect of prior anticancer therapy on AUCss ([2]; ALKPOT covariate): less than 20% | half-life ([2]; after the first dose, typical subjects (median age 53 years, ALK+ without previous ALK inhibitor treatment)): 34.6 h | AUCss(ug*h/L) Ratio [2, 8]: 0.79 | CL/F(L/h) Ratio [2, 8]: 1.27 | AUCss(ug*h/L) Ratio [2, 9]: 1.1 | CL/F(L/h) Ratio [2, 9]: 0.912 | AUCss median value ([2]; exposure–safety analysis, all patients): 2,233 ng∙h mL^–1 | ALAG1 (tlag) typical value ([2]; final PopPK model estimate): 0.483 (±0.0306) h and 0.483 h | CL1/F typical value ([2]; final PopPK model estimate): 64 (±1.51) L h^–1 and 64 L h^–1 | CL2/F typical value ([2]; final PopPK model estimate): 40.3 (±6.89) L h^–1 and 40.3 L h^–1 | KA typical value ([2]; final PopPK model estimate): 0.501 (±0.0444) h^−1 | V/F typical value ([2]; final PopPK model estimate): 5,210(±339) L and 5,210 L | KA typical value ([2]; final PopPK model estimate, Table 2): 0.501 L h^–1 | Interindividual variability ω^2 ALAG1 ([2]; final model estimate): 0.12 | Interindividual variability ω^2 CL ([2]; final model estimate): 0.138 | Interindividual variability ω^2 KA ([2]; final model estimate): 0.279 | Interindividual variability ω^2 V ([2]; final model estimate): 0.125 | ALKPOT = 6 on V/F ([2]; healthy subjects, final model estimate): 0.784 | ALAG1 bootstrap estimate ([2]; non-parametric bootstrap): 0.491 h | ALKPOT = 2,3,4 on V/F bootstrap estimate ([2]; non-parametric bootstrap): 0.724 | ALKPOT = 5 on V/F bootstrap estimate ([2]; non-parametric bootstrap): 0.905 | ALKPOT = 6 on V/F bootstrap estimate ([2]; non-parametric bootstrap): 0.782 | CL1/F bootstrap estimate ([2]; non-parametric bootstrap): 64 L h^–1 | CL2/F bootstrap estimate ([2]; non-parametric bootstrap): 40.5 L h^–1 | Interindividual variability ω^2 ALAG1 bootstrap estimate ([2]; non-parametric bootstrap): 0.106 | Interindividual variability ω^2 CL bootstrap estimate ([2]; non-parametric bootstrap): 0.138 | Interindividual variability ω^2 KA bootstrap estimate ([2]; non-parametric bootstrap): 0.276 | Interindividual variability ω^2 V bootstrap estimate ([2]; non-parametric bootstrap): 0.121 | KA bootstrap estimate ([2]; non-parametric bootstrap): 0.504 L h^–1 | Kout bootstrap estimate ([2]; non-parametric bootstrap): 1.35 day⁻¹ | V/F bootstrap estimate ([2]; non-parametric bootstrap): 5,199 L | ALKPOT = 5 on V/F ([2]; others (ROS1+ patients or unknown), final model estimate): 0.917 | ALKPOT = 2,3,4 on V/F ([2]; patients with previous ALK inhibitor treatment, final model estimate): 0.734 | Cmin,ss ([2]; quartile 1, estimated using the most prevalent dose): 18–60.7 ng mL^–1 | Cmin,ss ([2]; quartile 2, estimated using the most prevalent dose): 60.7–79 ng mL^–1 | Cmin,ss ([2]; quartile 3, estimated using the most prevalent dose): 79–108 ng mL^–1 | Cmin,ss ([2]; quartile 4, estimated using the most prevalent dose): 108–182 ng mL^–1 | half-life ([2]; steady state after multiple administrations, typical subjects): approximately 56.4 h | Kout ([2]; time-varying inhibition rate constant): 1.35 (±0.421) day^−1 | Kout typical value ([2]; time-varying inhibition rate constant, Table 2): 1.35 day⁻¹ | apparent clearance (CL/F) ([3]; after multiple doses at 20 mg once daily): 132 L h^–1 | apparent clearance (CL/F) ([3]; after multiple doses at 210 mg once daily): 58.3 L h^–1

From PMC11286589, “Population pharmacokinetics and exposure–response analyses of SAF-189s in Chinese patients with ALK+/ROS1+ non-small cell lung cancer” (Frontiers in Pharmacology, 2024)
